Read-outs that look alike come from different tables or passages of the source. Blank lines part the entries; values can stand above or below the molecule they belong to.
Legend:
[1] = biological target: fusion of FKBP12 to nanoluciferase (Homo sapiens (Human), UniProt P62942+Q96SW2); experiment: FKBP Dual Luciferase Assay (FKBP12); format: cell-based; settings: 4 hours
Method: (§1) The cells were treated with increasing concentrations of various dFKBPs for 4 hours. The amount of NLuc and FLuc was measured, and the abundance of the FKBP12-HA-NLuc was quantified by calculating the signal ratio of NLuc/FLuc.

GST-FKBP12 (36V) = GST-FKBP12 (36V) (Homo sapiens (Human), UniProt P62942, F36V); experiment: FKBP12 Ligand-Displacement AlphaScreen Assay (36V); format: binding; settings: read-out: IC50 (nM) FKBP 36V
Method: (§2) Following a 30 min-incubation, 20 uL detection solution containing Streptavidin Donor Beads and Glutathione Acceptor Beads diluted to 20 ng/uL in assay buffer was added to each well. […] Percent activity values were calculated by setting the average background (no protein wells) to 0% the average DMSO wells to 100% activity. Standard deviations were determined from at least four replicate measurements for compound concentration.

GST-FKBP12 (WT) = GST-FKBP12 (WT) (Homo sapiens (Human), UniProt P62942); experiment: FKBP12 Ligand-Displacement AlphaScreen Assay (WT); format: binding; settings: read-out: IC50 (nM) FKBP
Method: as §2

[2] = biological target: fusion of mutant FKBP12 to nanoluciferase (Homo sapiens (Human), UniProt P62942+Q96SW2, F36V); experiment: FKBP Dual Luciferase Assay (mutant FKBP12, 36V); format: cell-based; settings: 4 hours;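 further: cells exposed to rising degrader concentrations, FKBP12 fusion level read as NLuc/FLuc signal ratio, lower ratio means more degradation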
Method: as §1

NGP = experiment: Cell viability, ATPlite, 72 hours; format: cell-based; settings: NGP cells, Table 4-1
CRBN-DDB1/BRD4 = CRBN-DDB1/BRD4 (Homo sapiens (Human), UniProt O60885+Q96SW2); experiment: CRBN-DDB1/BRD4 Dimerization Assay; format: binding;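 further: AlphaScreen proximity signal between GST-tagged BRD4 and CRBN-DDB1 with glutathione donor and nickel chelate acceptor beads, read after 1 hr compound incubation at room temperature, values from Gaussian curve fit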
MV4;11 = experiment: Cell viability, ATPlite, 48 hours; format: cell-based; settings: Homo sapiens; MV4;11 cells
Method: (§3) ATP content was measured as a surrogate for cellular viability using ATPlite (Promega).

BRD4 [3] = biological target: T1, BRD4 (Homo sapiens (Human), UniProt O60885); experiment: BRD4 immunoblot in MV4-11 cells; format: cell-based; settings: MV4-11, 24 h
[4] = biological target: BRD4 adjoined to nanoluciferase (Nluc) (Homo sapiens (Human), UniProt O60885+Q96SW2); experiment: BRD4 Dual Luciferase Assay; format: cell-based
Method: Transduced cells were selected with puromycin and expanded. […] Cells were incubated with compound for 4 hours at 37° C., 5% CO2 and then allowed to cool to room temperature. To each plate was added 25 μL of Fluc buffer (200 mM Tris, 15 mM MgSO4, 100 uM EDTA, 1 mM DTT, 1 mM ATP, 200 uM Coenzyme A, 400 uM D-Luciferin, 0.1% Trition X-100).

CUTLI = experiment: Cell viability, ATPlite, 48 hours; format: cell-based; settings: CUTLI cells
Method: as §3

BRD4 [5] = biological target: T1, BRD4; experiment: BRD4 AlphaScreen; format: binding; settings: Table 4-1
Method: Cells were grown at 37° C. to an OD of 0.8, induced with 500 μM isopropyl-1-thio-D-galactopyranoside, incubated overnight at 17° C., collected by centrifugation, and stored at −80° C. Cell pellets were sonicated in buffer A (50 mM hepes 7.5+300 mM NaCl+10% glycerol+10 mM Imidazole+3 mM BME) and the resulting lysate was centrifuged at 35,000×g for 40 min. […] The sample was then passed through a desalting column ( 26/10 column) equilibrate with buffer A (without imidazole), and the eluted protein was subjected to a second Ni-NTA step to remove His-tag and TEV. The eluant was concentrated and passed through a Superdex-200 10/300 column in 20 mM hepes7.5+150 mM NaCl+1 mM DTT. Fractions were pooled, concentrated to 14 mg/ml, and frozen at −80° C.
The data were analyzed using PRISM Graphpad v6 to obtain IC50 values.

BRD4 [6] = biological target: T1, BRD4; experiment: BRD4 Cell Western (BRD4 levels in 293T cells, LiCOR); format: cell-based
Method: On the following day, dBET compounds were added at various concentrations. After being treated with the dBET compounds for 4 hours, cells were fixed with formaledhyde, permeabilized using 0.1% triton, blocked with LiCor blocking buffer, and incubated with the primary antibody (BRD4, 1:1000) overnight. On the following day, cells were washed (5×TBST) and stained using Odysee Cell Stain (1:500). A secondary antibody recoginizing the rabbit BRD4 antibody was added simultaneously (1:800). Images were quantified using LiCOR imager.

[7] = Gaussian fit of dimerization signal
[8] = Gaussian fit parameter of dimerization signal

Sequence of GST-FKBP12 (36V) (P62942 whole entry F37V): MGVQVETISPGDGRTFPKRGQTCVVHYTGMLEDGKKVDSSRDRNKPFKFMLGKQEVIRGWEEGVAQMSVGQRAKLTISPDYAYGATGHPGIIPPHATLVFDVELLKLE
Sequence of GST-FKBP12 (WT) (P62942 whole entry, the tested form may be a part): as the sequence (P62942 whole entry F37V) above, with V37F counted along it

Compound: COc1ccc(CC[C@@H](OC(=O)[C@@H]2CCCCN2C(=O)Cc2ccccc2)c2cccc(OCC(=O)NCCCCNC(=O)COc3cccc4c3C(=O)N(C3CCC(=O)NC3=O)C4=O)c2)cc1OC (stereo partly shown) [c1FKBP-5]
DC50 [1]: 2970 nM
Max Degradation (dual luciferase, %) FKBP [1]: 11%
IC50 (GST-FKBP12 (36V)): 2290 nM
IC50 (GST-FKBP12 (WT)): > 50000 nM
Max Degradation (dual luciferase, %) FKBP 36V [2]: <5%

Compound: CCC(C)(C)C(=O)C(=O)N1CCCC[C@H]1C(=O)O[C@H](CCc1ccc(OC)c(OC)c1)c1cccc(OCC(=O)NCCCCNC(=O)COc2cccc3c2C(=O)N(C2CCC(=O)NC2=O)C3=O)c1 (stereo partly shown) [c1FKBP-4]
Max Degradation (dual luciferase, %) FKBP [1]: 34%
IC50 (GST-FKBP12 (36V)): 369 nM
IC50 (GST-FKBP12 (WT)): 408 nM
Max Degradation (dual luciferase, %) FKBP 36V [2]: 21%

Compound: Cc1sc2c(c1C)C(c1ccc(Cl)cc1)=N[C@@H](CC(=O)NCCCCCCCCNC(=O)COc1cccc3c1C(=O)N(C1CCC(=O)NC1=O)C3=O)c1nnc(C)n1-2 (stereo partly shown) [dBET6]
IC50 (nM) NGP (NGP): 187/6

Compound: COc1cc(C(=O)NCCCCNC(=O)COc2cccc3c2C(=O)N(C2CCC(=O)NC2=O)C3=O)ccc1Nc1ncc2c(n1)N(C)c1ccccc1C(=O)N2C (stereo not shown) [dBET11]
Dimer Amplitude (CRBN-DDB1/BRD4; [7]): 308.3
Dimer Mean (CRBN-DDB1/BRD4; [7]): −5.917
Dimer SD (CRBN-DDB1/BRD4; [8]): 2.226
IC50 (MV4;11): 3.78 nM

Compound: CC[C@H](C(=O)N1CCCC[C@H]1C(=O)O[C@H](CCc1ccc(OC)c(OC)c1)c1cccc(OCC(=O)NCCCCCCNC(=O)COc2cccc3c2C(=O)N(C2CCC(=O)NC2=O)C3=O)c1)c1cc(OC)c(OC)c(OC)c1 (stereo partly shown) [c1FKBP*-8]
Dmax ([1]; read-out: Max Degradation (dual luciferase, %) FKBP): < 5%
IC50 (GST-FKBP12 (36V)): 365 nM
IC50 (GST-FKBP12 (WT)): > 50000 nM
DC50 ([2]; FKBP 36V, read-out: DC50 (nM) FKBP 36V): 0.8 nM
Dmax ([2]; FKBP 36V, read-out: Max Degradation (dual luciferase, %) FKBP 36V): 75%

Compound: Cc1sc2c(c1C)C(c1ccc(Cl)cc1)=N[C@@H](CC(=O)NCCCCCCNC(=O)c1ccc3c(c1)C(=O)N(C1CCC(=O)NC1=O)C3=O)c1nnc(C)n1-2 (stereo partly shown) [dBET15]
Conc@Emax [4]: 5 µM
Dimer Amplitude (CRBN-DDB1/BRD4): 13540
Dimer Mean (CRBN-DDB1/BRD4): −7.111
Dimer SD (CRBN-DDB1/BRD4): 0.6279

Compound: CC[C@@H]1C(=O)N(C)c2cnc(Nc3ccc(C(=O)NCCCOCCOCCOCCCNC(=O)COc4cccc5c4C(=O)N(C4CCC(=O)NC4=O)C5=O)cc3OC)nc2N1C1CCCC1 (stereo partly shown) [dBET10]
Conc@Emax ([4]; concentration at Emax): 50 µM
Dimer Amplitude (CRBN-DDB1/BRD4; [7]): 12824
Dimer Mean (CRBN-DDB1/BRD4; [7]): −7.349
Dimer SD (CRBN-DDB1/BRD4; [8]): 0.5165
DC50 (BRD4 [6]): 58 nM

Now from value to molecule, other results behind:

BRD4 degradation by compound alone (immunoblot) (BRD4 [3]): insufficient to induce BRD4 degradation
Compound: O=C1CCC(N2C(=O)c3ccccc3C2=O)C(=O)N1 (stereo not shown) [thalidomide]

Dimer Amplitude (CRBN-DDB1/BRD4; [7]): 16182
Dimer Mean (CRBN-DDB1/BRD4; [7]): −7.422
Dimer SD (CRBN-DDB1/BRD4; [8]): 0.7258
Compound: Cc1sc2c(c1C)C(c1ccc(C#N)cc1)=N[C@@H](CC(=O)NCCCCNC(=O)COc1cccc3c1C(=O)N(C1CCC(=O)NC1=O)C3=O)c1nnc(C)n1-2 (stereo partly shown) [dBET17]
IC50 (CUTLI): > 20000 nM

Dimer Amplitude (CRBN-DDB1/BRD4; [7]): 173.7
Dimer Mean (CRBN-DDB1/BRD4; [7]): −6.366
Dimer SD (CRBN-DDB1/BRD4; [8]): 3.287
IC50 (BRD4 [5]): 2080 nM
Compound: COc1cc(C(=O)NCCCOCCOCCOCCCNC(=O)COc2cccc3c2C(=O)N(C2CCC(=O)NC2=O)C3=O)ccc1Nc1ncc2c(n1)N(C)c1ccccc1C(=O)N2C (stereo not shown) [dBET12]
